Test results as given in ChEMBL document CHEMBL3232880, “The chemistry and biology of febrifugine and halofuginone” (Bioorg Med Chem, 2014).

The compounds below were run on Plasmodium falciparum (assay: Antimalarial activity against chloroquine-sensitive Plasmodium falciparum FCR-3 assessed as growth inhibition).
Type: functional, organism-based

For `O=C(C[C@@H]1NCCC[C@H]1O)Cn1cnc2ccccc2c1=O` (stereo in doubt; (-)-1) [FEBRIFUGINE], the EC50 was 200 nM.
`O=C(C[C@@H]1NCCC[C@H]1O)Cn1cnc2ccccc2c1=O` (stereo in doubt; (+)-1) [FEBRIFUGINE] showed an EC50 of 0.076 nM.

What follows are compounds tested on Plasmodium falciparum (assay: Antimalarial activity against Plasmodium falciparum assessed as growth inhibition).
Type: functional, organism-based

Going from `CC(=O)O[C@H]1CCCN(C(C)=O)[C@@H]1CC(=O)Cn1cnc2ccccc2c1=O` to `CCOC(=O)N1CCC[C@H](O)[C@H]1CC(=O)Cn1cnc2ccccc2c1=O`, the EC50 rises from 910 nM to 4800 nM (5.3-fold).

Compared with `O=c1c2ccccc2ncn1C[C@@H]1C[C@@H]2[C@@H](O)CCCN2CO1`, `COCO[C@H]1CCCN2CO[C@H](Cn3cnc4ccccc4c3=O)C[C@H]12` is 2.3-fold higher in EC50: 3.7 nM for the first, 8.6 nM for the second.

`O=C(C[C@H]1NCCCC1=O)Cn1cnc2ccccc2c1=O` showed an EC50 of 20 nM.

The compounds below were run on Plasmodium berghei (assay: Antimalarial activity against Plasmodium berghei infected in mouse).
Type: functional

Compared with `O=C(C[C@H]1NCCC[C@@H]1O)Cn1cnc2ccc(O)cc2c1=O`, `O=C(C[C@@H]1NCCC[C@H]1O)Cn1cnc2ccccc2c1=O` (stereo in doubt; (+)-1) [FEBRIFUGINE] is higher in ED50: 0.3 mg/kg/day for the first, 0.6 mg/kg/day for the second.

Work on `O=C(C[C@H]1NCC[C@H](O)[C@@H]1O)Cn1cnc2ccccc2c1=O` yielded an ED50 of 2.4 mg/kg/day.
